Source: article PMC12257413, “Discovery of a Novel sp^3‑Rich M1 Positive Allosteric Modulators (PAMs) Chemotype via Scaffold Hopping” (ACS Medicinal Chemistry Letters, 2025)
In brackets after ≈: the same amount, converted by molar mass. Where two headings read alike, the source gives them in different places.

Assays:
[1] = Brain homogenate binding by equilibrium dialysis; assay type: in vitro ADME; conditions: fraction unbound in rat brain homogenate
Description: A similar approach was used to determine the degree of brain homogenate binding, which employed the same methodology and procedure with the following modifications: 1) a final compound concentration of 1 μM was used, 2) naïve rat brains were homogenized in DPBS (1:3 composition of brain: DPBS, w/w) using a Mini-Bead Beater™ machine in order to obtain brain homogenate, which was then treated in the same manner as the plasma samples in the previously described plasma protein binding assay. […]
same manner as the plasma samples in the previously described plasma protein binding assay. Fraction unbound for both plasma and brain samples was determined using Equation 4.
Equation 4 Determination of fraction unbound in plasma.
The diluted fraction unbound (fu2) in brain was calculated in the same manner by using brain homogenate rather than plasma. Undiluted fraction unbound for the brain was calculated using Equation 5 […]
Equation 5 Determination of fraction unbound in brain. […]
Human or rat hepatic microsomes (0.5 mg/mL) and 1 µM test compound were incubated in 100 mM potassium phosphate pH 7.4 buffer with 3 mM MgCl 2 at 37 °C with constant shaking. […] The in vitro half-life (1/2, min, Eq. 1), intrinsic clearance (CL int, mL/min/kg, Eq. 2), and subsequent predicted hepatic clearance (CLhep, mL/min/kg, Eq. 3) was determined employing the following equations: […]

[2] = ElogD 7.4; assay type: physicochemical; conditions: pH 7.4
Description: 4 Detailed In Vitro and In Vivo Profiles for Selected M1 PAMs ^a | column: 17k; 17g

[3] = Aqueous solubility; assay type: physicochemical; conditions: aqueous solution, aqueous buffer
[4] = biological target: T1, human muscarinic receptor subtype 1 (M1) (Homo sapiens, UniProt P11229); assay: Calcium mobilization assay in hM1-CHO cells, PAM activity with EC20 acetylcholine; assay type: cell-based; conditions: for EC50: read-out: hM1 pEC50 ± SEM (converted)
T1 sequence (P11229 1-460): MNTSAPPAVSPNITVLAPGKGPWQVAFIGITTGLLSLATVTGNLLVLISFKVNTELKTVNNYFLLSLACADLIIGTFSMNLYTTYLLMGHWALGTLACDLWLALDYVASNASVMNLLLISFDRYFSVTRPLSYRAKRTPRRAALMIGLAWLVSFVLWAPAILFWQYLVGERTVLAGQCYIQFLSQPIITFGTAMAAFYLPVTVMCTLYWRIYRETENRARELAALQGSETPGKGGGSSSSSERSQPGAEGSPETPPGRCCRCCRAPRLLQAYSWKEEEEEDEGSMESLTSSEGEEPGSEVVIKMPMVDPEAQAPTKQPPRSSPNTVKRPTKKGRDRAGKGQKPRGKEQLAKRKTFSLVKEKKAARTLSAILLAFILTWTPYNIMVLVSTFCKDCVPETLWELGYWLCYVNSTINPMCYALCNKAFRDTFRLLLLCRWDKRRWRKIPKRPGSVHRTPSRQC
Description: page 2: Procedures for Biological Experiments Calcium mobilization assays: To measure the functional activity of positive allosteric modulator (PAM) compounds in a cellular assay, human or rat muscarinic receptor subtype 1 (M1) was stably expressed in the Chinese hamster ovary (CHO) cells to evoke an increase in intracellular calcium to an EC20 concentration of acetylcholine (ACh) agonist. The stable M1-CHO cells were cultured in F12 medium containing 10% fetal bovine serum, 20 mM HEPES, 100 units/mL antibiotics/antimycotic, 0.5 mg/ml G418. All reagents used were from Life Technologies (Carlsbad, CA) unless otherwise noted. Briefly, the day before the assay, stable M1-CHO cells (15,000 cells/20 μL/well) were plated in black-walled, clear-bottomed, 384 well plates (Greiner Bio-One, Monroe, NC) in the culture medium without G418, and then incubated overnight at 37 °C in the presence of 5% CO2. The next day, calcium assay buffer (Hank’s balanced salt solution (HBSS), 20 mM HEPES, 2.5 mM Probenecid, 4.16 mM sodium bicarbonate (Sigma-Aldrich, St. Louis, MO) was prepared to dilute […] calcium indicator dye. […] curves in DMSO using the Bravo Liquid Handler (Agilent, Santa Clara, CA), transferred to a 384 well daughter plates using an Echo acoustic liquid handler (Beckman Coulter, Indianapolis, Indiana), and diluted in assay Buffer to a 2X final concentration. The agonist plates were prepared using acetylcholine (ACh, Sigma-Aldrich, St. Louis, MO) concentrations for the EC20 and ECMAX responses by diluting in assay buffer to a 5X final concentration. The 2X dye solution (2.3 µM) was prepared by mixing a 2.3 mM Fluo-4-AM stock in DMSO with 10% (w/v) pluronic acid F- 127 in a 1:1 ratio in assay buffer. Using a microplate washer (BioTek, Winooski, VT), cells were washed with assay buffer for 3 times to remove medium. After the final wash, 20 μL of assay buffer remained in the cell plates. Immediately, 20 μL of the 2X dye solution (final 1.15 µM) was added to each well of the cell plate using a Multidrop Combi dispenser (Thermo Fisher, Waltham, MA). After cells were incubated with the dye solutions for 45 min at 37 °C in the presence of 5% CO2, the dye solutions were removed and replaced with assay buffer using a microplate washer, leaving 20 μL of assay buffer in the cell plate. The compound, agonist, and cell plates were placed inside the Functional Drug Screening System uCell (FDSS uCell, Hamamatsu, Japan) to measure the calcium flux. The triple add protocol was used to measure Ca kinetics; Compound, ACh for EC20, and ACh for ECMAX adds in an order. Briefly, after establishment of a fluorescence baseline S2 page 3: for 2 seconds (excitation, 480 nm; emission, 530 nm), first add occurred by adding 20 µL of test compound to the cells, and the response was measured for 140 seconds. This is followed by second add; 10 µL (5X) of an EC20 concentration of ACh agonist was added to the cells, and the response of the cells was measured for 125 seconds. Immediately, the third add occurred by adding 12 ul assay buffer or 5X of an EC max concentration of ACh and the response of the cells was measured for 90 seconds. Assay buffer was added to the wells that incubated with compounds followed by EC20 concentration of ACh. Agonists containing ECmax concentration of ACh were added to the wells that incubated with DMSO and assay buffer from the 1st and 2nd adds to measure maximum Ca responses (ECmax). Calcium fluorescence was recorded as fold over basal fluorescence and raw data were normalized to the maximal response to ACh agonist. […]

[5] = pH 2.2, read-out: Solubility pH = 2.2
[6] = pH 6.8, read-out: Solubility pH = 6.8

Rat fubrain [1] | chromatographic logD [2] | solubility [3, 5] | solubility [3, 6] | hM1 %ACh Max ± SEM [4] | EC50 [4] | SMILES
0.01 | 4.15 | 10.8 µM (≈ 4.83 µg/mL) | < 1.12 µM | 82 ± 4.4 %ACh Max | 589 nM | Cn1cc(-c2ccc(Cc3cc(C(=O)N[C@H]4CCCC[C@@H]4O)nn3C3CCCC3)cc2)cn1 [17k]
0.08 | 3.05 | 84.6 µM (≈ 38 µg/mL) | 80.7 µM (≈ 36.3 µg/mL) | 82 ± 3.4 %ACh Max | 427 nM | Cn1cc(-c2ccc(Cc3cc(C(=O)N[C@H]4CCOC[C@@H]4O)nn3C3CCCC3)cc2)cn1 [17g]
